Literature values as cited in US7399639B2, “Sensors, and methods of making and using the same” (Massachusetts Institute of Technology, priority 2003, dated 2008).

Tests used:
[1] = reported elsewhere; cited from earlier work
[2] = reported elsewhere, cited from earlier work
[3] = reported elsewhere; cited from earlier work; remark: listed apart in the source
[4] = reported elsewhere; cited from earlier work; remark: listed apart in the source

O=C(O)c1ccccc1-c1c2cc(Cl)c(=O)cc-2oc2c(CNc3ccccc3CN(Cc3ccccn3)Cc3ccccn3)c(O)ccc12 [Zinpyr-4]
increase in integrated emission in response to the dual-metal buffering system [1]: ~5 fold | quantum efficiency ([2]; metal-free): 0.05 | increase in brightness upon Zn(II) binding [2]: 6.7 fold | quantum efficiency of Zn(II) complex [2]: 0.34 | metal ion selectivity [3]: Zn(II) and Cd(II) selective | pKa of the aniline nitrogen [4]: 7.2
